Measurements as given in US8192962B2, “Processes for detecting toxic substances” (Daikin Industries, Ltd., priority 2001, dated 2012).

System: Metabolism protein genes
Test: DNA chip mRNA expression in yeast, metabolism protein genes (Table 7)
Format: cell-based, Saccharomyces cerevisiae S288C
Protocol: Yeast (Saccharomyces cerevisiae S288C (α SUC2mal mel gap2 CUP1)) were incubated at 25° C. on YPD medium (yeast extract 1%, polypepton 2%, glucose 2%). One of toxic chemical substances was added to the cells at logarithmic growth phase, and the cells were further incubated for two hours. Cells were cultured without any chemical substance in the same condition, and were used as control. Concentrations of the chemical substances were defined to inhibit the growth of the yeast but not lead to death.
After completion of the incubation, the culture was centrifuged to collect the cells. To the cells, sodium acetate buffer (50 mM sodium acetate, 10 mM EDTA, 1% SDS) was added, and the mixture was shaken at 65° C. for five minutes, followed by returning to room temperature, and obtaining the supernatant, of which the procedures were repeated two times. To the supernatant, ½ amount of a solution of phenol/chloroform was added, and the mixture was centrifuged to give a supernatant, which was added with an equal amount of chloroform, and the mixture was centrifuged to give a supernatant. To the supernatant, an equal amount of isopropanol containing 0.3 M sodium acetate was added, and the mixture was allowed to stand at room temperature for 30 minutes, after which the mixture was centrifuged to give a sediment of the whole RNAs. Seventy % ethanol was added to the sediment, and the mixture was again centrifuged to give a sediment, which was then dried and dissolved in water. mRNA was isolated from the whole RNAs as followings. In view of the fact that a poly A chain is attached to the 3′ terminus of mRNA, a polynucleotide having a poly T structure which was immobilized on the surface of latex beads was used to trap the mRNA, and then the mRNA was washed and eluted with spine column (Oligotex-dT30<Super>mRNA Purification Kit, Takara). Reverse transcription of the mRNA was conducted with a reverse transcriptase (Super Script II Reverse Transcriptase; catalogue No. 18064-014, GibcoBRL) using fluorescence-labeled nucleotides to give cDNAs that were introduced with Cy3-dUTP or Cy5-dUTP during the reverse transcription.
The labeled cDNAs were dissolved in TE buffer (10mM Tris-HCl/1 mM EDTA, pH8.0), and the solution was dropped on the DNA chip containing the whole genes of yeast (DNA Chip Research Inc. Japan) so that the cDNAs were hybridized on the DNA chip at 65° C. for over 12 hours. The fluoresces intensity of the DNA chip was read with a scanner, and the ratio relative to the fluorescence intensity resulting from the absence of chemical substance was estimated as the following, which is shown in Tables 1 to 9: […]

CCCCCCCCCCCCOS(=O)(=O)[O-].[Na+] [(18), sodium lauryl sulfate]
The level of expressed mRNA in the presence of chemical substance/The level of expressed mRNA in the absence of chemical substance (yeast gene YFR047C): 1.6
level of expressed mRNA in the presence/in the absence of chemical substance (yeast gene YGL012W): 1.1
The level of expressed mRNA in the presence of chemical substance/The level of expressed mRNA in the absence of chemical substance (yeast gene YGL022W): 0.7
level of expressed mRNA in the presence/in the absence of chemical substance (yeast gene YGL115W): 1.2
The level of expressed mRNA in the presence of chemical substance/The level of expressed mRNA in the absence of chemical substance (yeast gene YGL126W): 0.9
level of expressed mRNA in the presence/in the absence of chemical substance (yeast gene YGL205W): 9.1
The level of expressed mRNA in the presence of chemical substance/The level of expressed mRNA in the absence of chemical substance (yeast gene YGL209W): 1.5
The level of expressed mRNA in the presence of chemical substance/The level of expressed mRNA in the absence of chemical substance (yeast gene YGL248W): 1.2
The level of expressed mRNA in the presence of chemical substance/The level of expressed mRNA in the absence of chemical substance (yeast gene YGR037C): 2.0
The level of expressed mRNA in the presence of chemical substance/The level of expressed mRNA in the absence of chemical substance (yeast gene YGR055W): 0.7
level of expressed mRNA in the presence/in the absence of chemical substance (yeast gene YGR096W): 1.0
level of expressed mRNA in the presence/in the absence of chemical substance (yeast gene YGR191W): 0.8
The level of expressed mRNA in the presence of chemical substance/The level of expressed mRNA in the absence of chemical substance (yeast gene YGR194C): 2.0
level of expressed mRNA in the presence/in the absence of chemical substance (yeast gene YGR204W): 0.7
The level of expressed mRNA in the presence of chemical substance/The level of expressed mRNA in the absence of chemical substance (yeast gene YGR256W): 0.8
The level of expressed mRNA in the presence of chemical substance/The level of expressed mRNA in the absence of chemical substance (yeast gene YGR282C): 1.5
level of expressed mRNA in the presence/in the absence of chemical substance (yeast gene YGR288W): 1.3
level of expressed mRNA in the presence/in the absence of chemical substance (yeast gene YHR025W): 0.6
The level of expressed mRNA in the presence of chemical substance/The level of expressed mRNA in the absence of chemical substance (yeast gene YHR111W): 1.2
level of expressed mRNA in the presence/in the absence of chemical substance (yeast gene YHR123W): 1.0
The level of expressed mRNA in the presence of chemical substance/The level of expressed mRNA in the absence of chemical substance (yeast gene YHR137W): 1.3
The level of expressed mRNA in the presence of chemical substance/The level of expressed mRNA in the absence of chemical substance (yeast gene YHR174W): 1.2
The level of expressed mRNA in the presence of chemical substance/The level of expressed mRNA in the absence of chemical substance (yeast gene YHR176W): 1.6
level of expressed mRNA in the presence/in the absence of chemical substance (yeast gene YHR210C): 1.2
level of expressed mRNA in the presence/in the absence of chemical substance (yeast gene YIL006W): 0.9
The level of expressed mRNA in the presence of chemical substance/The level of expressed mRNA in the absence of chemical substance (yeast gene YIL045W): 1.8
The level of expressed mRNA in the presence of chemical substance/The level of expressed mRNA in the absence of chemical substance (yeast gene YIL107C): 2.0
The level of expressed mRNA in the presence of chemical substance/The level of expressed mRNA in the absence of chemical substance (yeast gene YIL154C): 1.0
The level of expressed mRNA in the presence of chemical substance/The level of expressed mRNA in the absence of chemical substance (yeast gene YIL155C): 1.4
The level of expressed mRNA in the presence of chemical substance/The level of expressed mRNA in the absence of chemical substance (yeast gene YIL167W): 0.8
The level of expressed mRNA in the presence of chemical substance/The level of expressed mRNA in the absence of chemical substance (yeast gene YIR034C): 1.0
The level of expressed mRNA in the presence of chemical substance/The level of expressed mRNA in the absence of chemical substance (yeast gene YIR036C): 1.3
The level of expressed mRNA in the presence of chemical substance/The level of expressed mRNA in the absence of chemical substance (yeast gene YJL031C): 1.9
The level of expressed mRNA in the presence of chemical substance/The level of expressed mRNA in the absence of chemical substance (yeast gene YJL068C): 1.5
The level of expressed mRNA in the presence of chemical substance/The level of expressed mRNA in the absence of chemical substance (yeast gene YJL088W): 0.9
The level of expressed mRNA in the presence of chemical substance/The level of expressed mRNA in the absence of chemical substance (yeast gene YJL099W): 1.6
level of expressed mRNA in the presence/in the absence of chemical substance (yeast gene YJL121C): 1.0
The level of expressed mRNA in the presence of chemical substance/The level of expressed mRNA in the absence of chemical substance (yeast gene YJL155C): 3.1
level of expressed mRNA in the presence/in the absence of chemical substance (yeast gene YJL167W): 2.1
The level of expressed mRNA in the presence of chemical substance/The level of expressed mRNA in the absence of chemical substance (yeast gene YJL172W): 1.8
level of expressed mRNA in the presence/in the absence of chemical substance (yeast gene YJL216C): 2.0
The level of expressed mRNA in the presence of chemical substance/The level of expressed mRNA in the absence of chemical substance (yeast gene YJL219W): 1.2
level of expressed mRNA in the presence/in the absence of chemical substance (yeast gene YJR077C): 0.8
The level of expressed mRNA in the presence of chemical substance/The level of expressed mRNA in the absence of chemical substance (yeast gene YJR137C): 0.8
level of expressed mRNA in the presence/in the absence of chemical substance (yeast gene YJR143C): 0.8
The level of expressed mRNA in the presence of chemical substance/The level of expressed mRNA in the absence of chemical substance (yeast gene YJR148W): 1.7
The level of expressed mRNA in the presence of chemical substance/The level of expressed mRNA in the absence of chemical substance (yeast gene YJR155W): 1.4
